Source: patent US20230112845A1, “COMPOSITIONS OF BERBERINE URSODE[…] METHODS THEREOF FOR TREATING FATTY LIVER DISEASE, DIABETES AND HYPERLIPIDEMIA” (SHENZHEN HIGHTIDE BIOPHARMACEUTICAL LTD., priority 2020, published 2023)

Tested on: patients with presumed NASH and type 2 diabetes
Assay: Phase 2 randomized placebo-controlled trial, 18 weeks: liver fat content (MRI-PDFF), glycemic control, liver enzymes, lipids, body weight, fibrosis markers
Format: in vivo, human
Settings: for Absolute Change in LFC (%), Mean / Relative Change in LFC (%), Mean / Absolute Change in LFC (%), LS Mean / Relative Change in LFC (%), LS Mean: Efficacy Set; for Absolute Change in LFC (%), Mean: placebo −2.0; for Relative Change in LFC (%), Mean: placebo −8.3; for Absolute Change in LFC (%), LS Mean: placebo −1.8; for Relative Change in LFC (%), LS Mean: placebo −8.2; for Mean change in LDL-c (mg/dL), Mean / Mean change in HbA1c (%), Mean / Relative change in GGT (%), Mean / Mean change in TG (mg/dL), Mean / Mean change in GGT (U/L), Mean / Mean change in ALT (U/L), Mean / Relative change in ALT (%), Mean / Mean change in HbA1c (%), LS Mean / Mean change in LDL-c (mg/dL), LS Mean / Mean change in TG (mg/dL), LS Mean / Mean change in GGT (U/L), LS Mean / Mean change in ALT (U/L), LS Mean: Modified Efficacy Set; for Mean change in LDL-c (mg/dL), Mean: placebo 0; for Mean change in HbA1c (%), Mean / Mean change in HbA1c (%), LS Mean: placebo 0.1; for Relative change in GGT (%), Mean: placebo 5; for Mean change in TG (mg/dL), Mean: placebo 18; for Mean change in GGT (U/L), Mean / Mean change in ALT (U/L), LS Mean: placebo −2; for Mean change in ALT (U/L), Mean: placebo −3; for Relative change in ALT (%), Mean: placebo −6; for Mean change in LDL-c (mg/dL), LS Mean: placebo 1; for Mean change in TG (mg/dL), LS Mean: placebo 19; for Mean change in GGT (U/L), LS Mean: placebo −1; for Mean change in Body weight (kg), Mean / Mean change in Body weight (kg), LS Mean: Safety Set, placebo −1.1; for Proportion achieving ≥ 30% relative reduction in LFC (subjects/total): placebo 7/33; for Proportion achieving ≥ 5% Absolute Reduction in LFC (subjects/total): placebo 8/33; for Proportion achieving ≥ 30% relative reduction in LFC (percent): placebo 21%; for Proportion achieving ≥ 5% Absolute Reduction in LFC (percent): placebo 24%; for decrease in mean HbA1c level: placebo increase of 0.1%
Text: The aim of this study was to determine the effect of two different doses of BUDCA on liver fat content (LFC) in patients with diabetes and presumed NASH when administered for 18 weeks. This phase 2 clinical trial tested the effect of BUDCA in patients with fatty liver disease and diabetes. The group taking the higher dose of this new drug had significant reductions in the amount of fat in their liver as well as improvement in their diabetes.
A prospective, randomized, placebo-controlled trial of two doses of BUDCA administered orally was conducted in a cohort of 100 subjects with fatty liver disease and diabetes. Treatment was for 18 weeks and endpoints measured included reduction in liver fat content measured by […] proton density fat fraction, improvement in glycemic control, changes in liver-associated enzymes, safety and tolerability.
Patients with diabetes and presumed NASH were randomized into one of three treatment groups, as follows: 1) BUDCA 500 mg BID 2) 1,000 mg BID and 3) matching placebo. Presumed NASH was defined based largely on magnetic resonance imaging derived proton density fat fraction (MRI-PDFF) of 10% or more. Additional inclusion criteria further enriched the study population for having NASH by virtue of requiring corrected T1 (cT1) of more than 830 milliseconds and elevated serum aspartate aminotransferase (AST)≥20 units per liter (6). Subjects had to be overweight or obese with body mass index of 25 kg/m^2 or more.
Study subjects underwent an initial screening evaluation, including measurement of LFC by MRI-PDFF. Subjects were excluded if they had known liver disease other than fatty liver disease or a history of excessive alcohol consumption. Although liver biopsies were not done as a part of this study, subjects with clear evidence of cirrhosis were excluded, based upon a platelet count of less than 150,000/mm^3, serum albumin levels less than […] or a current or previous history of clinical hepatic decompensation.
Those who were deemed eligible were then randomized into one of the three treatment groups described above and underwent a further baseline evaluation at the time of randomization and initial dosing. Subjects were permitted to continue their current treatment regimen for diabetes provided they had been on a stable dose regimen for at least 90 days.
LFC was measured at baseline and after 18 weeks of therapy. In addition, changes in liver chemistry tests, measures of glycemic control and serum lipid levels were also assessed during and at the end of treatment.
Descriptive Statistics were used to summarize continuous data, and frequencies and percentages were used to summarize categorical data. The Safety Set consisted of all subjects who received at least one dose of study treatment. The Modified Efficacy Set is a subset of the Safety Set consisting of subjects that had at least one post-dose MRI-PDFF assessment. […] The primary endpoint was an absolute change from Baseline to Week 18 (or ET) in Liver Fat Content. Primary Endpoint summary measures were provided in both the Efficacy and Modified Efficacy sets, with the Efficacy Set prespecified as the primary analysis set. All other endpoints were prespecified to use the Modified Efficacy Set. Comparisons between active treatment groups relative to placebo were tested using Analysis of Covariance (ANCOVA) with treatment group as a fixed effect and baseline value of the parameters of interest as covariates. ANCOVA based LS Means and raw means have been reported. For statistical analysis of laboratory parameters (i.e. P-values), multiple imputation was used to take missing data into account. A two-sided alpha level of 0.05 without adjustment for multiple tests was used to indicate statistical significance. Analyses were performed using SAS System version 9.4.
Effects of treatment with BUDCA on AST to Platelet Ratio Index (APRI) and Fibrosis-4 (FIB-4) were also measured.

COc1ccc2cc3[n+](cc2c1OC)CCc1cc2c(cc1-3)OCO2.C[C@H](CCC(=O)[O-])[C@H]1CC[C@H]2[C@@H]3[C@@H](O)C[C@@H]4C[C@H](O)CC[C@]4(C)[C@H]3CC[C@]12C [BUDCA, berberine ursodeoxycholate]
Absolute Change in LFC (%), Mean (500 mg BID, 18 weeks, N 30): −2.9% | Relative Change in LFC (%), Mean (500 mg BID, 18 weeks, N 30): −15.1% | Absolute Change in LFC (%), LS Mean (500 mg BID, 18 weeks, P 0.199): −3.2% | Relative Change in LFC (%), LS Mean (500 mg BID, 18 weeks, P 0.196): −15.9% | Mean change in LDL-c (mg/dL), Mean (500 mg BID, 18 weeks, N 27): 5 mg/dL | Mean change in HbA1c (%), Mean (500 mg BID, 18 weeks, N 29): −0.3% | Relative change in GGT (%), Mean (500 mg BID, 18 weeks, N 29): −23% | Mean change in TG (mg/dL), Mean (500 mg BID, 18 weeks, N 29): -41 mg/dL | Mean change in GGT (U/L), Mean (500 mg BID, 18 weeks, N 29): −19 U/L | Mean change in ALT (U/L), Mean (500 mg BID, 18 weeks, N 29): −4 U/L | Relative change in ALT (%), Mean (500 mg BID, 18 weeks, N 29): −6% | Mean change in HbA1c (%), LS Mean (500 mg BID, 18 weeks, P 0.029): −0.4% | Mean change in LDL-c (mg/dL), LS Mean (500 mg BID, 18 weeks, P 0.955): 1 mg/dL | Mean change in TG (mg/dL), LS Mean (500 mg BID, 18 weeks, P 0.041): -36 mg/dL | Mean change in GGT (U/L), LS Mean (500 mg BID, 18 weeks, P 0.005): −20 U/L | Mean change in ALT (U/L), LS Mean (500 mg BID, 18 weeks, P 0.674): −5 U/L | Mean change in Body weight (kg), Mean (500 mg BID, 18 weeks, N 29): -1.6 kg | Mean change in Body weight (kg), LS Mean (500 mg BID, 18 weeks, P 0.554): -1.6 kg | decrease in triglyceride level (500 mg BID, 18 weeks, P=0.04): 41 mg/dL | Proportion achieving ≥ 30% relative reduction in LFC (subjects/total) (500 mg BID, 18 weeks): 6/31 | Proportion achieving ≥ 5% Absolute Reduction in LFC (subjects/total) (500 mg BID, 18 weeks): 10/31 | Proportion achieving ≥ 30% relative reduction in LFC (percent) (500 mg BID, 18 weeks): (19%) | Proportion achieving ≥ 5% Absolute Reduction in LFC (percent) (500 mg BID, 18 weeks): (32%) | decrease in mean HbA1c level (500 mg BID, 18 weeks): 0.3% | Absolute Change in LFC (%), Mean (1,000 mg BID, 18 weeks, N 27): −4.8% | Relative Change in LFC (%), Mean (1,000 mg BID, 18 weeks, N 27): −24.1% | Absolute Change in LFC (%), LS Mean (1,000 mg BID, 18 weeks, P 0.011): −4.7% | Relative Change in LFC (%), LS Mean (1,000 mg BID, 18 weeks, P 0.016): −23.3% | Mean change in LDL-c (mg/dL), Mean (1,000 mg BID, 18 weeks, N 25): -16 mg/dL | Mean change in HbA1c (%), Mean (1,000 mg BID, 18 weeks, N 26): −0.6% | Relative change in GGT (%), Mean (1,000 mg BID, 18 weeks, N 26): −29% | Mean change in TG (mg/dL), Mean (1,000 mg BID, 18 weeks, N 26): -24 mg/dL | Mean change in GGT (U/L), Mean (1,000 mg BID, 18 weeks, N 26): −30 U/L | Mean change in ALT (U/L), Mean (1,000 mg BID, 18 weeks, N 26): −19 U/L | Relative change in ALT (%), Mean (1,000 mg BID, 18 weeks, N 26): −21% | Mean change in HbA1c (%), LS Mean (1,000 mg BID, 18 weeks, P 0.005): −0.5% | Mean change in LDL-c (mg/dL), LS Mean (1,000 mg BID, 18 weeks, P 0.072): -12 mg/dL | Mean change in TG (mg/dL), LS Mean (1,000 mg BID, 18 weeks, P 0.120): -24 mg/dL | Mean change in GGT (U/L), LS Mean (1,000 mg BID, 18 weeks, P <0.001): −25 U/L | Mean change in ALT (U/L), LS Mean (1,000 mg BID, 18 weeks, P 0.007): −16 U/L | Mean change in Body weight (kg), Mean (1,000 mg BID, 18 weeks, N 27): -3.5 kg | Mean change in Body weight (kg), LS Mean (1,000 mg BID, 18 weeks, P 0.012): -3.5 kg | average body weight loss (1,000 mg BID, 18 weeks, P=0.012): 3.5 kg | absolute LFC decrease, average (1,000 mg BID, 18 weeks, placebo 2.0%, p=0.011): 4.8% | Proportion achieving ≥ 30% relative reduction in LFC (subjects/total) (1,000 mg BID, 18 weeks): 10/30 | Proportion achieving ≥ 5% Absolute Reduction in LFC (subjects/total) (1,000 mg BID, 18 weeks): 12/30 | relative decrease in LFC (1,000 mg BID, 18 weeks, placebo 8.3%, p=0.016): 24.1% | Proportion achieving ≥ 30% relative reduction in LFC (percent) (1,000 mg BID, 18 weeks): (33%) | Proportion achieving ≥ 5% Absolute Reduction in LFC (percent) (1,000 mg BID, 18 weeks): (40%) | decrease in mean HbA1c level (1,000 mg BID, 18 weeks): 0.6% | proportion of subjects showing improvements in APRI to thresholds associated with less severe fibrosis, vs placebo (1,000 mg, 18 weeks): approximately 2 fold | proportion of subjects showing improvements in FIB-4 to thresholds associated with less severe fibrosis, vs placebo (1000 mg, 18 weeks): approximately 4 fold | reduction in APRI vs placebo (1,000 mg, after 18 weeks (FIG. 6)): approximately 3 fold | reduction in FIB-4 vs placebo (1000 mg, after 18 weeks (FIG. 7)): approximately 3 fold | percentage of subjects achieving ALT reductions vs placebo (18 weeks (FIG. 8)): greater percentage | Pro-C3 vs placebo (18 weeks (FIG. 9)): No significant differences | enhanced liver fibrosis (ELF) score vs placebo (18 weeks (FIG. 9)): No significant differences | change in HOMA-IR (BUDCA therapy, 18 weeks): No significant changes | change in level of HDL-c (BUDCA therapy, 18 weeks): no significant change | change in level of blood glucose (BUDCA therapy, 18 weeks): No significant changes | change in level of insulin (BUDCA therapy, 18 weeks): No significant changes | average decrease in level of LDL-c (high dose group (1,000 mg BID), 18 weeks, P=0.072): 16 mg/dL
